In US9353119B2, “Composition for preventing and treating non-small cell lung cancer, containing pyrazino-triazine derivatives” (JW PHARMACEUTICAL CORPORATION, priority 2011, dated 2016):
Where a name gives a salt, the structure may show the parent alone. Read-outs that look alike come from different tables or passages of the source. Values belong to the compound of their own block, whether it stands above or below them.

What was measured:
NCI-H460 cells = type: in vivo, Balb/c nude mice; conditions: for TGI %: Table 7 summary, NCI-H460 (EGFR TKI resistant), Cpd 1-1 given TIW
Procedure: From Day 6 (D1) to […] (D12) after the transplantation, three groups of the NCI-H460-transplanted mice were administered with compound of Chemical Formula 1-1 or paclitaxel as summarized in Table 3, below.

NCI-H1975 cells [1] = experiment: In vivo anticancer activity, NCI-H1975 xenograft (Experimental Example 1); design: species or system Balb/c nude mice; conditions: for TGI %: Table 7 summary, NCI-H1975 (EGFR TKI resistant)
Procedure: Measurements of body weights and tumor sizes were randomized for n=7 per group using in-house randomization software. The tumor size was calculated from measurements of the longest axis (length, m) and the shortest axis (width, m) according to the following formula: Tumor size (mm^3): Width (mm)×Width (mm)×Length (mm)/2
The anticancer activity depending on the administration was evaluated by tumor growth inhibition, (TGI, %) calculated according to the following formulas.
When the tumor size of the drug-administered group is larger than the initial tumor size: % TGI=100*(1−(tumor volumeDay X−tumor volumeInitial for treated group)/(tumor volumeDay X−tumor volumeInitial for Vehicle group))
When the tumor size of the drug-administered group is smaller than the initial tumor size: % TGI=100+100*(1−(Treated group tumor volumeDayX/Treated group tumor volumeinitial))
Herein, mortality indicated deaths resulting from drug administration.
Herein, maximum body weight loss (MBL) means the largest loss of body weight caused by drug administration and is an important factor for determining maximum tolerable dose (MTD). The change of body weight was expressed as percentage of the body weight just before drug administration (D1). As a rule, the dose at which 10% or more of the body weight was lost was determined as the MTD.

HCC827 cells = experiment: In vivo anticancer activity, HCC827 xenograft (Experimental Example 3); conditions: for TGI %: Table 7 summary, HCC827 (EGFR TKI sensitive), dose not given; for MBL (%): D11
PC6 = experiment: In vitro cell growth inhibition (CellTiter-Glo), PC6; type: cell-based; conditions: Homo sapiens, PC-6; PC6, 72 hrs
Procedure: (§1) This experiment aims to evaluate the in vitro anticancer activity of the pyrazino-triazine derivative (Chemical Formula 1-1P) of the present invention in various NSCLC cell lines.
(§2) NSCLC cells lines were seeded at a density of 5×10^3 cells/well into 96-well plates. Compound 1-1P and the reference drug doxorubicin were serially diluted by ½ in the concentration range of from 0.001 μM to 1 μM and the cells in each well were treated with each dilution in duplicate, followed by incubation for 72 hours in a 37° C., 5% CO2 incubator. CellTiter-Glo® (Luminescent Cell Viability Assay, #G7573, Promega) was added in an amount of 100 μL to each well and shaken for 2 min to lyze the cells. After incubation for 10 min at room temperature (25° C.), luminescence from each well was on a luminometer (Envision (Perkinelmer).
(§3) The anticancer activity depending on the administration of Compound 1-1P was evaluated over seven different NSCLC cell lines by cell growth inhibition 50 (GI50), a concentration needed to reduce the growth of treated cells to half that of untreated cells, calculated according to the following formula. GI50=(50−(y1−((y1−y2)/(x1−x2))*x1)/((y1−y2)/(x1−x2))
(§4) x1, x2=50% cell kill or lethal concentrations
(§5) y1, y2=cell densities at 50% cell kill or lethal concentrations

NCI-H23 = experiment: In vitro cell growth inhibition (CellTiter-Glo), NCI-H23; type: cell-based; conditions: Homo sapiens; NCI-H23, 72 hrs
Procedure: as §1, §2, §3, §4, §5

NCI-H1650 = experiment: In vitro cell growth inhibition (CellTiter-Glo), NCI-H1650; type: cell-based; conditions: Homo sapiens; NCI-H1650, 72 hrs
Procedure: as §1, §2, §3, §4, §5

NCI-H1975 = experiment: In vitro cell growth inhibition (CellTiter-Glo), NCI-H1975; type: cell-based; conditions: Homo sapiens; NCI-H1975, 72 hrs
Procedure: as §1, §2, §3, §4, §5

A549 = experiment: In vitro cell growth inhibition (CellTiter-Glo), A549; type: cell-based; conditions: Homo sapiens; A549, 72 hrs
Procedure: as §1, §2, §3, §4, §5

HCC827 = experiment: In vitro cell growth inhibition (CellTiter-Glo), HCC827; type: cell-based; conditions: Homo sapiens; HCC827, 72 hrs
Procedure: as §1, §2, §3, §4, §5

NCI-H460 = experiment: In vitro cell growth inhibition (CellTiter-Glo), NCI-H460; type: cell-based; conditions: Homo sapiens; NCI-H460, 72 hrs
Procedure: as §1, §2, §3, §4, §5

NCI-H1975 cells [2] = experiment: In vivo anticancer activity, NCI-H1975 xenograft (Experimental Example 6); design: species or system Balb/c nude mice
Procedure: From Day 11 (D11) to Day 22 (D22) after the transplantation, five groups of the NCI-H1975-transplanted mice were administered with compounds 1-3 and 1-5 as summarized in Table 11, below.

NCI-H1975 cells [3] = experiment: In vivo anticancer activity, NCI-H1975 xenograft (Experimental Example 8); design: species or system Balb/c nude mice; conditions: Group 2: 60 mg/kg IV BIW for 2 weeks
Procedure: From Day 11 (D11) to Day 22 (D22) after the transplantation, two groups of the NCI-H1975-transplanted mice were administered with compound 1-7 as summarized in Table 13, below.

NCI-H1975 cells [4] = experiment: In vivo anticancer activity, NCI-H1975 xenograft (Experimental Example 5)
Procedure: From Day 11 (D11) to Day 22 (D22) after the transplantation, three groups of the NCI-H1975-transplanted mice were administered with a bisodium salt of the compound of Chemical Formula 2-2 or cisplatin as summarized in Table 9, below.
The mean volume of tumors before the experiment (mean starting tumor volume) was 118 mm^3

[5] = Group 3: paclitaxel 20 mg/kg ip (D1, 3, 5, 8, 10, 12)
[6] = Group 6: paclitaxel 7.5 mg/kg ip once a week, two injections
[7] = Group 6: paclitaxel 10 mg/kg ip once per week, four injections
[8] = Group 2: 40 mg/kg IV QDx5 for 2 weeks
[9] = Group 3: 30 mg/kg IV QDx5 for 2 weeks
[10] = Group 2: 1-1 150 mg/kg iv, six injections (D1, 3, 5, 8, 10, 12)
[11] = Group 2: 1-1 100 mg/kg iv once a day, ten injections (D8-12, 15-19)
[12] = Group 3: 1-1 150 mg/kg iv once a day, ten injections (D8-12, 15-19)
[13] = Group 2: 1-1 100 mg/kg iv once a day, 20 injections over four weeks
[14] = Group 3: 1-1 150 mg/kg iv once a day, 20 injections over four weeks
[15] = Group 2: 200 mg/kg IV QDx5 for 2 weeks
[16] = Group 3: cisplatin 2.5 mg/kg IV BIW for 2 weeks

SMILES: CC(=O)O[C@H]1C(=O)[C@@]2(C)[C@H]([C@H](OC(=O)c3ccccc3)[C@]3(O)C[C@H](OC(=O)[C@H](O)[C@@H](NC(=O)c4ccccc4)c4ccccc4)C(C)=C1C3(C)C)[C@]1(OC(C)=O)CO[C@@H]1C[C@@H]2O [Paclitaxel, reference compound]
Mortality (NCI-H460 cells; [5]): 0/6 | TGI % D12 (NCI-H460 cells; [5]): 15% | Tumor size @D 12 (Mean ± S.E. mm^3) (NCI-H460 cells; [5]): 1339 ± 260 mm^3 | TGI % (NCI-H460 cells): >15% | Mortality (NCI-H1975 cells [1]; [6]): 0/7 | TGI % D22 (NCI-H1975 cells [1]; [6]): 28% | Tumor size @D 22) (Mean ± S.E. mm3) (NCI-H1975 cells [1]; [6]): 736 ± 79 mm3 | TGI % (NCI-H1975 cells [1]; dose not given): >30% | Mortality (HCC827 cells; [7]): 0/6 | TGI % D33 (HCC827 cells; [7]): 18% | Tumor size @D 33 (Mean ± S.E. mm^3) (HCC827 cells; [7]): 557 ± 83 mm^3 | TGI % (HCC827 cells): >18%

GI50 (NCI-H23): 67 nM | GI50 (NCI-H1650): 156 nM | GI50 (NCI-H1975): 111 nM | GI50 (A549): 372 nM | GI50 (HCC827): 115 nM | GI50 (NCI-H460): 272 nM
SMILES: C=CCN1CC(=O)N2[C@@H](Cc3ccc(O)cc3)C(=O)N(Cc3cccc4c(C(C)=O)cn(C)c34)C[C@@H]2N1C(=O)NCc1ccccc1 [Compound 1-1P]
GI50 (PC6): 493 nM

SMILES: C=CCN1CC(=O)N2[C@@H](Cc3ccc(OP(=O)(O)O)cc3)C(=O)N(Cc3cccc4c(-c5ccc(C(=O)N6CCCCC6)cc5)cn(C)c34)C[C@@H]2N1C(=O)NCc1ccccc1 [Compound 1-3]
Mortality (NCI-H1975 cells [2]; [8]): 0/6 | TGI % D22 (NCI-H1975 cells [2]; [8]): 62% | Tumor size @D 22 (Mean ± S.E. mm^3) (NCI-H1975 cells [2]; [8]): 571 ± 38 mm^3 | MBL (%) (NCI-H1975 cells [2]; Group 2: 40 mg/kg IV QDx5 for 2 weeks, D19): 4 (D19) %

SMILES: C=CCN1CC(=O)N2[C@@H](Cc3ccc(O)cc3)C(=O)N(Cc3cccc4c(C(=O)Nc5ccc(NCCN6CCOCC6)nc5)cn(C)c34)C[C@@H]2N1C(=O)NCc1ccccc1.Cl [Compound 1-7]
Mortality (NCI-H1975 cells [3]): 0/5 | TGI % D22 (NCI-H1975 cells [3]): 41% | Tumor size @D 22 (Mean ± S.E. mm^3) (NCI-H1975 cells [3]): 410 mm^3

SMILES: C=CCN1CC(=O)N2[C@@H](Cc3ccc(OP(=O)(O)O)cc3)C(=O)N(Cc3cccc4c(C(=O)Nc5ccc(N(C)C)nc5)cn(C)c34)C[C@@H]2N1C(=O)NCc1ccccc1 [Compound 1-5]
Mortality (NCI-H1975 cells [2]; [9]): 0/6 | TGI % D22 (NCI-H1975 cells [2]; [9]): 71% | Tumor size @D 22 (Mean ± S.E. mm^3) (NCI-H1975 cells [2]; [9]): 464 ± 45 mm^3 | MBL (%) (NCI-H1975 cells [2]; Group 3: 30 mg/kg IV QDx5 for 2 weeks, D12): 5 (D12) %

SMILES: C=CCN1CC(=O)N2[C@@H](Cc3ccc(OP(=O)([O-])O)cc3)C(=O)N(Cc3cccc4c(C(C)=O)cn(C)c34)C[C@@H]2N1C(=O)NCc1ccccc1.[Na+] [Compound 1-1]
Mortality (NCI-H460 cells; [10]): 0/6 | TGI % D12 (NCI-H460 cells; [10]): 25% | Tumor size @D 12 (Mean ± S.E. mm^3) (NCI-H460 cells; [10]): 1196 ± 247 mm^3 | MBL (%) (NCI-H460 cells; Group 2: 1-1 150 mg/kg iv, six injections (D1, 3, 5, 8, 10, 12), @D2): 4 (@D2) % | TGI % (NCI-H460 cells): 25% | Tumor size on D22 compared with vehicle control (NCI-H1975 cells [1]; D22, dose not given): significantly reduced | Mortality (NCI-H1975 cells [1]; [11]): 0/7 | TGI % D22 (NCI-H1975 cells [1]; [11]): 74% | Tumor size @D 22) (Mean ± S.E. mm3) (NCI-H1975 cells [1]; [11]): 307 ± 97 mm3 | Mortality (NCI-H1975 cells [1]; [12]): 0/7 | TGI % D22 (NCI-H1975 cells [1]; [12]): 109% | Tumor size @D 22) (Mean ± S.E. mm3) (NCI-H1975 cells [1]; [12]): 57 ± 22 mm3 | TGI % (NCI-H1975 cells [1]; dose not given): 100% | Mortality (HCC827 cells; [13]): 0/7 | TGI % D33 (HCC827 cells; [13]): 50% | Tumor size @D 33 (Mean ± S.E. mm^3) (HCC827 cells; [13]): 380 ± 29 mm^3 | MBL (%) (HCC827 cells; [13]): 1 (D11) % | Mortality (HCC827 cells; [14]): 0/7 | TGI % D33 (HCC827 cells; [14]): 68% | Tumor size @D 33 (Mean ± S.E. mm^3) (HCC827 cells; [14]): 262 ± 30 mm^3 | MBL (%) (HCC827 cells; [14]): 1 (D11) % | TGI % (HCC827 cells): 78%

SMILES: C[C@H]1[C@H]2N(C(=O)CN(C)N2C(=O)NCc2ccccc2)[C@@H](Cc2ccc(OP(=O)(O)O)cc2)C(=O)N1Cc1cccc2cccnc12 [2Na Salt of Cpd. 2-2]
MBL (%) (NCI-H1975 cells [4]; [15]): no loss | Mortality (NCI-H1975 cells [4]; [15]): 0/6 | TGI % D22 (NCI-H1975 cells [4]; [15]): 27% | Tumor size @D 22 (Mean ± S.E. mm^3) (NCI-H1975 cells [4]; [15]): 720 ± 104 mm^3

SMILES: N.N.[Cl][Pt][Cl] [Cisplatin, reference compound]
Mortality (NCI-H1975 cells [4]; [16]): 0/6 | TGI % D22 (NCI-H1975 cells [4]; [16]): 23% | Tumor size @D 22 (Mean ± S.E. mm^3) (NCI-H1975 cells [4]; [16]): 750 ± 53 mm^3
